Measurements as given in patent US20260215423A1, “NOVEL CARBOXAMIDE AND SULFONAMIDE PESTICIDAL COMPOUNDS” (SYNGENTA CROP PROTECTION AG, priority 2023, published 2026).

Columns and labels:
Assay type in all cases: in vivo
[1] = tested on: Euschistus heros (Neotropical Brown Stink Bug); test: Euschistus heros (Neotropical Brown Stink Bug); settings: 120 h, application rate of 200 ppm, soybean leaves sprayed, N2 nymphs, 5 days after infestation, read-out: effect in at least one of the two categories (mortality or growth inhibition)
Method: Example B3: Euschistus heros (Neotropical Brown Stink Bug)
Soybean leaves on agar in 24-well microtiter plates were sprayed with aqueous test solutions prepared from 10′000 ppm DMSO stock solutions. After drying the leaves were infested with N2 nymphs. The samples were assessed for mortality and growth inhibition in comparison to untreated samples 5 days after infestation.

[2] = tested on: Plutella xylostella (Diamond back moth); test: Plutella xylostella (Diamond back moth); settings: 192 h, application rate of 200 ppm, artificial diet treated by pipetting, Plutella eggs, 8 days after infestation, read-out: effect in at least one of the two categories (mortality or growth inhibition)
Method: After drying, Plutella eggs were pipetted through a plastic stencil onto a gel blotting paper and the plate was closed with it. The samples were assessed for mortality and growth inhibition in comparison to untreated samples 8 days after infestation.

[3] = tested on: Myzus persicae (Green Peach Aphid); test: Myzus persicae (Green Peach Aphid). Intrinsic Activity; settings: 120 h, test rate of 12 ppm, mixed with sucrose solution, feeding through Parafilm, 5 days after infestation
Text: Example B7: Myzus persicae (Green Peach Aphid). Intrinsic Activity
Test compounds prepared from 10′000 ppm DMSO stock solutions were applied by pipette into 24-well microtiter plates and mixed with sucrose solution. The plates were closed with a stretched Parafilm. A plastic stencil with 24 holes was placed onto the plate and infested pea seedlings were placed directly on the Parafilm. The infested plate was closed with a gel blotting paper and another plastic stencil and then turned upside down. The samples were assessed for mortality 5 days after infestation.

[4] = tested on: Bemisia tabaci (Cotton White Fly); test: Bemisia tabaci (Cotton White Fly): Feeding/Contact Activity; settings: foliar, 144 h, application rate of 200 ppm, cotton leaf discs sprayed, adult white flies, 6 days after incubation
Method: Example B1: Bemisia tabaci (Cotton White Fly): Feeding/Contact Activity
Cotton leaf discs were placed on agar in 24-well microtiter plates and sprayed with aqueous test solutions prepared from 10′000 ppm DMSO stock solutions. After drying the leaf discs were infested with adult white flies. The samples were checked for mortality 6 days after incubation.

[5] = tested on: Myzus persicae (Green Peach Aphid); test: Myzus persicae (Green Peach Aphid) Feeding/Contact Activity, eggplant leaf discs; settings: foliar, 144 h, application rate of 200 ppm, eggplant leaf discs sprayed, aphid population of mixed ages, 6 days after infestation, read-out: growth inhibition
Text: Example B8: Myzus persicae (Green Peach Aphid) Feeding/Contact Activity Eggplant leaf discs were placed onto agar in a 24-well microtiter plate and sprayed with aqueous test solutions prepared from 10′000 ppm DMSO stock solutions. After drying, the leaf discs were infested with an aphid population of mixed ages. […]

[6] = tested on: Frankliniella occidentalis (Western Flower Thrips); test: Frankliniella occidentalis (Western Flower Thrips): Feeding/Contact Activity, sunflower leaf discs; settings: foliar, 168 h, application rate of 200 ppm, sunflower leaf discs sprayed, population of mixed ages, 7 days after infestation
Method: Example B4: Frankliniella occidentalis (Western Flower Thrips):Feeding/Contact Activity
Sunflower leaf discs were placed on agar in 24-well microtiter plates and sprayed with aqueous test solutions prepared from […] stock solutions. After drying the leaf discs were infested with a Frankliniella population of mixed ages. The samples were assessed for mortality 7 days after infestation.

[7] = tested on: Diabrotica balteata (Corn root worm); test: Diabrotica balteata (Corn root worm); settings: 96 h, application rate of 200 ppm, maize sprouts sprayed, L2 larvae, 4 days after infestation, read-out: effect in at least one of the two categories (mortality or growth inhibition)
Method: Example B2: Diabrotica balteata (Corn root worm)
Maize sprouts placed onto an agar layer in 24-well microtiter plates were treated with aqueous test solutions prepared from 10′000 ppm DMSO stock solutions by spraying. After drying, the plates were infested with L2 larvae (6 to 10 per well). The samples were assessed for mortality and growth inhibition in comparison to untreated samples 4 days after infestation.

[8] = tested on: Myzus persicae (Green Peach Aphid); test: Myzus persicae (Green Peach Aphid): Feeding/Contact Activity, sunflower leaf discs; settings: foliar, 144 h, application rate of 200 ppm, sunflower leaf discs sprayed, aphid population of mixed ages, 6 days after infestation
Method: Example B6: Myzus persicae (Green Peach Aphid):Feeding/Contact Activity
Sunflower leaf discs were placed onto agar in a 24-well microtiter plate and sprayed with aqueous test solutions prepared from 10′000 ppm DMSO stock solutions. After drying, the leaf discs were infested with an aphid population of mixed ages. The samples were assessed for mortality 6 days after infestation.

[9] = tested on: Tetranychus urticae (Two-Spotted Spider Mite); test: Tetranychus urticae (Two-Spotted Spider Mite): Feeding/Contact Activity; settings: foliar, 192 h, application rate of 200 ppm, bean leaf discs sprayed, mite population of mixed ages (mobile stages), 8 days after infestation
Method: Example B11: Tetranychus urticae (Two-Spotted Spider Mite):Feeding/Contact Activity
Bean leaf discs on agar in 24-well microtiter plates were sprayed with aqueous test solutions prepared from 10,000 ppm DMSO stock solutions. After drying the leaf discs were infested with a mite population of mixed ages. The samples were assessed for mortality on mixed population (mobile stages) 8 days after infestation.

[10] = tested on: Frankliniella occidentalis (Western Flower Thrips); test: Frankliniella occidentalis (Western Flower Thrips) Feeding/Contact Activity, bean leaf discs; settings: foliar, 96 h, application rate of 200 ppm, bean leaf discs sprayed, population of mixed ages, 4 days after infestation, read-out: growth inhibition
Method: Example B5: Frankliniella occidentalis (Western Flower Thrips) Feeding/Contact Activity Bean leaf discs were placed on agar in 24-well microtiter plates and sprayed with aqueous test solutions prepared from […] stock solutions. After drying the leaf discs were infested with a Frankliniella population of mixed ages. The samples were assessed for mortality 4 days after infestation.

[11] = tested on: Spodoptera littoralis (Egyptian Cotton Leaf Worm); test: Spodoptera littoralis (Egyptian Cotton Leaf Worm); settings: foliar, 72 h, application rate of 200 ppm, cotton leaf discs sprayed, five L1 larvae, 3 days after infestation, read-out: control (mortality, anti-feeding effect, growth inhibition)
Method: Example B10: Spodoptera littoralis (Egyptian Cotton Leaf Worm)
Cotton leaf discs were placed onto agar in 24-well microtiter plates and sprayed with aqueous test solutions prepared from 10′000 ppm DMSO stock solutions. After drying the leaf discs were infested with five L1 larvae. The samples were assessed for mortality, anti-feeding effect, and growth inhibition in comparison to untreated samples 3 days after infestation. Control of Spodoptera littoralis by a test sample is given when at least one of the categories mortality, anti-feedant effect, and growth inhibition is higher than the untreated sample.

CCC(=O)NCc1cc(OC[C@H](C)N(COC)S(=O)(=O)C(F)(F)F)ccc1Cl [P-3, N-[[2-chloro-5-[(2S)-2-[methoxymethyl(tri-fluoromethylsulfonyl)-amino]propoxy]phenyl]methyl]propanamide]
≥ 80%: percent effect (mortality or growth inhibition) at 200 ppm [1] | percent effect (mortality or growth inhibition) at 200 ppm [2] | mortality at 12 ppm [3] | mortality at 200 ppm [4] | inhibition at 200 ppm [5] | mortality at 200 ppm [6] | percent effect (mortality or growth inhibition) at 200 ppm [7] | mortality at 200 ppm [8] | mortality at 200 ppm [9]

CCC(=O)NCc1cc(OC[C@H](C)N(C(=O)CC)S(=O)(=O)C(F)(F)F)ccc1Cl [P-18, N-[[2-chloro-5-[(2S)-2-[propanoyl(trifluoro-methylsulfonyl)amino]propoxy]phenyl]methyl] propanamide]
≥ 80%: percent effect (mortality or growth inhibition) at 200 ppm [1] | percent effect (mortality or growth inhibition) at 200 ppm [2] | mortality at 12 ppm [3] | inhibition at 200 ppm [10] | inhibition at 200 ppm [5] | percent effect (mortality or growth inhibition) at 200 ppm [7] | mortality at 200 ppm [11] | mortality at 200 ppm [9]
